Read-outs that look alike come from different tables or passages of the source.
Columns and labels:
HepG2 cells = conditions: cited from earlier work
HFD-fed C57BL/6J mice = assay: AST and ALT enzymatic activities in liver homogenates; assay type: in vivo; conditions: for ALT / AST: 11 weeks, mean ± SEM
Procedure: Measure of Metabolic Parameters and Liver Enzymes. ALT and AST enzymatic activities and liver samples (n=4-8 per group) were homogenized in 10 mL of 100 mM
Tris (pH=7.8) per gram of tissue. The homogenates were centrifuged at 10 000 g for 15 minutes at 4° C., and the supernatants were tested for ALT and AST activity using colorimetric assay kits purchased from Cayman Chemical (Ann Arbor, MI, USA). Triglycerides and total cholesterol were analyzed with commercially available kits (Cayman Chemical, Ann Arbor, MI, USA). Plasma glucose at week 11 was measured with a colorimetric assay, and plasma insulin, MCP-1, IL-6, and PCSK9 were analyzed by ELISA kits purchased from Abcam (Cambridge, UK).

[1] = Quantification of XP and XN in plasma and cortex by UPLC-MS with or without glucuronidase digestion; assay type: in vivo, mice; conditions: for concentration at 11 weeks: C57BL/6J, mouse, without glucuronidase digestion, daily oral XP 30, XN 60 mg/kg body weight, mean ± SEM
Procedure: Quantification of XP and XN. For plasma extractions, ascorbic acid (5 μL, 10% m/m water, Sigma-Aldrich, St Louis, MO, USA) was added to 40 μL of plasma. For tissue extractions, 20 mg of cortex was extracted with 200 μL of 50% methanol in water and 10 μL of ascorbic acid (10% m/m water). Samples were incubated with or without 10 μL of glucuronidase (20 mg/mL, Sigma-Aldrich, St Louis, MO, USA) for 3 hours at 37° C. The samples were extracted with 200 μL of acetonitrile containing 100 ng/mL of [13C3]-XN. The supernatant was transferred to a new tube and vacuum-dried, and the pellet was reconstituted in 100 μL of 50% methanol in water. UPLC-MS was performed using a hybrid triple quadrupole linear ion trap mass spectrometer (4000 QTRAP, AB SCIEX, Toronto, Canada). The elution profile was set as follows: 5% B from 0 to 0.5 min, 5 to 100% B from 0.5 to 3 minutes, 1 minute hold at 100% B, followed by re-equilibration of the HPLC column at 5% B for 2 minutes. Selected reaction monitoring transitions used for quantification were m/z 353.1>119.1 for XN, m/z 379.3>321.3 for XP, and m/z 356.1>120.1 for the [13C3]-XN internal standard.
For plasma extractions, ascorbic acid (5 μL, 10% m/m water, Sigma Aldrich, St Louis, MO, USA) was added to 40 μL of plasma. Samples were incubated with or without 10 μL glucuronidase (20 mg/mL, Sigma Aldrich, St Louis, MO, USA) for 3 hr at 37° C. Samples were extracted with 200 μL of acetonitrile containing 100 ng/mL [^13C3]—XN^1. The supernatant was transferred to a new tube, vacuum-dried and the pellet was reconstituted in 100 μL of 50% methanol in water. UPLC-MS was performed using a hybrid triple quadrupole linear ion trap mass spectrometer (4000 QTRAP, AB SCIEX, Toronto, Canada) as previously reported with some modifications. The elution profile was set as follows: 5% solvent B from 0 to 0.5 minute, 5% to 100% B from 0.5-3 minutes, 1 minute hold at 100% B followed by re-equilibration of the HPLC column at 5% B for 2 minutes. Selected Reaction Monitoring transitions used for quantification were m/z 353.1>119.1 for XN, m/z 379.3>321.3 for XP and m/z 356.1>120.1 for [^13C3]—XN internal standard. XP and XN concentrations were calculated by the external calibration method using calibration curves constructed from pure XP and XN standards.

[2] = test system: LPS-activated RAW 264.7 cells; assay: Nitric oxide (NO) assay, Griess reagent; assay type: cell-based; conditions: LPS 1 μg/mL, 24 hours
Procedure: Nitric Oxide (NO) Assay. NO secreted by LPS-activated RAW 264.7 cells into the culture medium was determined as nitrite by the Griess reagent. RAW 264.7 1 cells obtained from the American Type Culture Collection (Manassas, VA, USA) were cultured in DMEM supplemented with 2 mM glutamine, antibiotics (100 U/mL penicillin and 100 μg/mL streptomycin), and 10% heat-inactivated fetal bovine serum. The cells were initially grown in 75 cm^2 culture flasks at 37° C. in a humidified incubator with 5% CO2. After reaching 80% confluency, the cells were split by seeding them on 96-well plates (0.2 mL/well) at a density of 1.5×10^5 cells/mL. After a 24-hour incubation at 37° C., the cells were treated with LPS (1 μg/mL) with or without test compounds in various concentrations. Vehicle control cells were treated with dimethyl sulfoxide alone at a final concentration of 0.1%. Culture media from control and treated cells were collected after 24 hours of incubation and were frozen at −80° C. before analysis. For the determination of NO (as […]), […], aliquots of the thawed culture media were mixed with an equal volume of Griess reagent on a 96-well plate. […] The samples were incubated for 10 minutes at room temperature and then the absorbance was read at 550 nm using a SpectraMax 190 (Molecular Devices, Sunnyvale, CA) plate reader.

C2Cl2 cells = assay: MTT cell viability assay in C2Cl2 cells; assay type: cell-based, murine; conditions: 24 hours
Procedure: To assess the toxicity of 4-(5-(4-hydroxyphenyl)-1-methyl-1h-pyrazol-3-yl)-5-methoxy-2-(3-methylbut-2-en-1-yl)benzene-1,3-diol (XP), in vitro cell viability assays were performed on several cell lines. HepG2, 3T3L1 and C2Cl2 cells were exposed to XP and cell viability was assessed using an MTT assay. At concentrations lower than 50 μM, XP had no effect on the viability of the human liver cancer cell lines HepG2 and murine myoblast cell lines C2Cl2 with respect to the control treatment (FIGS. 11A-11B). […] This establishes that XP is safe to use in vivo at dosages similar to xanthohumol.
Cell Viability Assays. Cells were seeded in 96-well plates 24 hours prior to adding the compound. HepG2 cells were seeded at a density of 5×10^4 cells/mL and C2Cl2 at 1×10^4 cells/mL in order to reach 80% confluency at the beginning of the experiment. After 24 hours, the culture medium was replaced with fresh medium containing various concentrations ranging between 0 and 200 μM of XP. The cells were incubated in the presence of the compound for 24 hours, at which time, the MTT viability assay was carried as previously described. […] The cells were incubated for 3 hours and then acidified with 100% isopropanol for 15 minutes before absorbance reading at 570 nm on a BioTek Synergy HT plate reader.

[3] = cortex, read-out: CORTEX concentration, Non-glucuronidated
[4] = plasma, read-out: PLASMA concentration, Non-glucuronidated

SMILES	Cytotoxic concentration (HepG2 cells)	AST and ALT test results versus control (HFD-fed C57BL/6J mice)	ALT (HFD-fed C57BL/6J mice)	AST (HFD-fed C57BL/6J mice)	concentration at 11 weeks [1, 3]	concentration at 11 weeks [1, 4]	Concentration from which anti-inflammatory activity (decreased NO production) was displayed [2]	Decrease in liver enzymes (AST, ALT) (HFD-fed C57BL/6J mice; versus control, not significant)	Concentration without effect on cell viability (C2Cl2 cells)	Concentration without effect on cell viability (C2Cl2 cells; listed as 4-(5-(4-hydroxyphenyl)-1-methyl-1H-pyrazol-3-yl)-5-methoxy-2-(3-methylbut-2-en-1))	Phase 1 metabolism ([1]; plasma of treated mice)	Metabolites detected in plasma ([1]; plasma of treated mice, mass spectrometric analysis)
COc1cc(O)c(CC=C(C)C)c(O)c1C(=O)/C=C/c1ccc(O)cc1 [XN, xanthohumol]	above 25 μM	did not change substantially	0.22 ± 0.06 U/mL	0.16 ± 0.03 U/mL	59.7 ± 16.8 ng/g	13.2 ± 3.07 ng/mL	–	–	–	–	–	–
COc1cc(O)c(CC=C(C)C)c(O)c1-c1cc(-c2ccc(O)cc2)n(C)n1 [XP, 4-(5-(4-hydroxyphenyl)-1-methyl-1H-pyrazol-3-yl)-5-methoxy-2-(3-methylbut-2-en-1-yl)benzene-1,3-diol]	–	did not change substantially	0.38 ± 0.07 U/mL	0.30 ± 0.06 U/mL	40.1 ± 2.8 ng/g	43.5 ± 3.54 ng/mL	≥ 10 µM	30%	lower than 50 μM	up to 25 μM	resistant to phase 1 metabolism	XP-glucuronide was the only metabolite

— patent publication US12534439B2, “Xanthohumol derivatives and methods for making and using” (Oregon State University, priority 2021, dated 2026)
